According to patent US12582619B2 (priority 2020, dated 2026):
“Also recorded” adds a separate entry of the source.

Legend:
Androgen Receptor = target: T1, Androgen Receptor (Homo sapiens, UniProt P10275)
T1 sequence (P10275 1-920): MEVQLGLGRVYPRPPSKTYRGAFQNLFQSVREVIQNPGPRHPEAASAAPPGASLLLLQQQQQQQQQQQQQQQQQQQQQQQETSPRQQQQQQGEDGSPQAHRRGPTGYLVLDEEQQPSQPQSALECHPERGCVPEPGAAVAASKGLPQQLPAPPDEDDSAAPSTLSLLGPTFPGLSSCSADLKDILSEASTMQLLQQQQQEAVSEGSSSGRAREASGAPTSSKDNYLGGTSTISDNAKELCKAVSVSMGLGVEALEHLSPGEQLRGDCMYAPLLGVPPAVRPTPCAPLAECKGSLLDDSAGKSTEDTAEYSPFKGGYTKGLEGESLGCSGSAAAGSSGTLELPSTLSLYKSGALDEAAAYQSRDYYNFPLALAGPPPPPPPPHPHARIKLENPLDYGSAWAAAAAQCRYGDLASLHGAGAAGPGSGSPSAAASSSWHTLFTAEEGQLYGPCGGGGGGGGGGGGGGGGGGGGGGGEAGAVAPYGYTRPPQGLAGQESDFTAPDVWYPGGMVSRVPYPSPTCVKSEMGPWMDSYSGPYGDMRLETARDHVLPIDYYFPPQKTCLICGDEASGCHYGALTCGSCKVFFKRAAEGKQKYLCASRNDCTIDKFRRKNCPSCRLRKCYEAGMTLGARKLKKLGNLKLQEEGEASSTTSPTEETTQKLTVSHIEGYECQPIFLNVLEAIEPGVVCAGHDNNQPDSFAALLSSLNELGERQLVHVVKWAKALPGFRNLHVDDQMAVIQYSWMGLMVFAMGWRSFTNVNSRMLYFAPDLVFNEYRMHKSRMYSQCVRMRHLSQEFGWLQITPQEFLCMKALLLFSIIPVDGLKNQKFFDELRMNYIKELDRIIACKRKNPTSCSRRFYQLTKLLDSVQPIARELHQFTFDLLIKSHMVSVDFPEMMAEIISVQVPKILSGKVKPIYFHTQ

SARS-CoV-2 = test: Infection of Huh7.5 cells by replication competent SARS-CoV-2, qRT-PCR; type: cell-based; conditions: 10 μM, 24 hours post inoculation, FIG. 3
Procedure: FIG. 3 illustrates the finding that only certain Sigma1 inhibitors block SARS-CoV-2 infection. […] Results can be compared to vehicle (DMSO), Remdesivir (Rem, 10 μM), and hydroxychloroquine (HCQ, 10 μM). Compounds and SARS-CoV-2 were added to cell culture; 24 hours post inoculation relative infection calculated by qRT-PCR.
A discrete set of Sigma1 modulators was tested in an assay of replication competent SARS-CoV-2 infectivity. […] Strikingly, IPAG, CT189, and CT1107 blocked SARS-CoV-2 infection by 1,000 (IPAG, CT189, CT360) to 10,000 (CT1107) fold.

TMPRSS2 mRNA transcript = test: TMPRSS2 transcript levels in LNCaP cells; conditions: 10 μM, FIG. 1B

For `N=C(Nc1ccc(I)cc1)NC1C2CC3CC(C2)CC1C3` (stereo not shown) [IPAG, reference compound], the “dihydrotesterone (DHT) induced AR transcriptional activity” value (Androgen Receptor) was “inhibition”, the “blocked SARS-CoV-2 infection, fold” value (SARS-CoV-2) was 1,000 fold and the “effect on SARS-CoV-2 infection (in words)” value (SARS-CoV-2) was “suppressed SARS-CoV-2 infection; also recorded: inhibit SARS-CoV-2 infection”. For the same compound, the TMPRSS2 transcript (TMPRSS2 mRNA transcript) was “decreased”.
